IC50 data for 3 molecules are collected here from ChEMBL document CHEMBL4190196, “Kohamamides A, B, and C, Cyclic Depsipeptides from an Okeania sp. Marine Cyanobacterium” (J Nat Prod, 2017).

Molecules are shown by their SMILES. *1 amine or outer side, *2 acyl side, *3 side chain or, on linkers, in order; H or OH if unused. Where a SMILES comes first, the peptide text is derived from it. Bridges are numbered along the chain shown (N, C = ends). [ ]: non-standard residue; d: D form. X1 = C#CCCC[C@H](O[*:2])C(C)(C)C(=O)[*:1]; X2 = C=CCCC[C@H](O[*:2])C(C)(C)C(=O)[*:1]; X3 = CCCCC[C@H](O[*:2])C(C)(C)C(=O)[*:1]; Hmpa(2S,3S) = CC[C@H](C)[C@H](O)C(=O)O; NMeV = CN[C@H](C(=O)O)C(C)C

The subject of one test is HL-60. The experiment in a line: Growth inhibition of human HL60 cells after 72 hrs by MTT assay. The test is classed as functional, cell-based. The conditions noted are these: HL-60, 72 h. (Tetrazolium assays rely on reduction of a dye to a coloured formazan, in cell work by metabolically active cells.)
The subject of a further test is HeLa. In words: Growth inhibition of human HeLa cells after 72 hrs by MTT assay. Format: functional, cell-based.

Turning to `C#CCCC[C@@H]1OC(=O)[C@H](C)NC(=O)[C@H](CC(C)C)NC(=O)[C@@H]2CCCN2C(=O)[C@H]([C@@H](C)CC)OC(=O)[C@H](C(C)C)N(C)C(=O)[C@H](C(C)C)NC(=O)C1(C)C` (V[NMeV][Hmpa(2S,3S)]PLA; linker N-C via X1), the results for the IC50 in the test on HL-60 and in the test with HeLa were 19 µM and 29 µM, respectively.
On the same counts, the results for `C=CCCC[C@@H]1OC(=O)[C@H](C)NC(=O)[C@H](CC(C)C)NC(=O)[C@@H]2CCCN2C(=O)[C@H]([C@@H](C)CC)OC(=O)[C@H](C(C)C)N(C)C(=O)[C@H](C(C)C)NC(=O)C1(C)C` (V[NMeV][Hmpa(2S,3S)]PLA; linker N-C via X2) are 6 µM and 23 µM.
On the same counts, the results for `CCCCC[C@@H]1OC(=O)[C@H](C)NC(=O)[C@H](CC(C)C)NC(=O)[C@@H]2CCCN2C(=O)[C@H]([C@@H](C)CC)OC(=O)[C@H](C(C)C)N(C)C(=O)[C@H](C(C)C)NC(=O)C1(C)C` (V[NMeV][Hmpa(2S,3S)]PLA; linker N-C via X3) are 11 µM and 18 µM.
